Measured values published in patent US6825354B2 (Wyeth Holdings Corporation, priority 1999, dated 2004).
Like-named read-outs stand apart in the source and are kept apart here.

Legend:
[1] = biological target: MMP-13 (Homo sapiens, UniProt P45452); assay: MMP-13 inhibition, thiopeptide or fluorescent peptide substrate; assay type: biochemical; conditions: for IC50: read-out: MMP13 IC50; for inhibition at 10 µM: read-out: MMP13 % @ 10 μM
Procedure: (§1) The enzyme activity is measured by the rate of the color increase. The thiopeptide substrate is made up fresh as a 20 mM stock in 100% DMSO and the DTNB is dissolved in 100% DMSO as a 100 mM stock and stored in the dark at room temperature. Both the substrate and DTNB are diluted together to 1 mM with substrate buffer (50 mM HEPES pH 7.5, 5 mM CaCl2) before use. The stock of enzyme is diluted with buffer (50 mM HEPES, pH 7.5, 5 mM CaC12, 0.02% Brij) to the desired final concentration.
(§2) Alternatively, a fluorescent peptide substrate is used. In this test procedure, the peptide substrate contains a fluorescent group and a quenching group. Upon cleavage of the substrate by an MMP, the fluorescence that is generated is quantitated on the fluorescence plate reader. The assay is run in HCBC assay buffer (50 mM HEPES, pH 7.0, 5 mM Ca^+2, 0.02% Brij, 0.5% Cysteine), with human recombinant MMP-1, MMP-9, or MMP-13. The substrate is dissolved in methanol and stored frozen in 1 mM aliquots. For the assay, substrate and enzymes are diluted in HCBC buffer to the desired concentrations. Compounds are added to the 96 well plate containing enzyme and the reaction is started by the addition of substrate.
(§3) For either the thiopeptide or fluorescent peptide test procedures, the slope of the line is calculated and represents the reaction rate. […] The mean (x±sem) of the control rate is calculated and compared for statistical significance (p<0.05) with drug-treated rates using Dunnett's multiple comparison test.

[2] = biological target: TNF-α converting enzyme (TACE) (Homo sapiens, UniProt P78536); assay: TACE inhibition, fluorescent peptidyl substrate; assay type: biochemical
Procedure: […] The reaction is initiated by addition of a fluorescent peptidyl substrate (final concentration 100 μM) to each well and then shaking on a shaker for 5 sec.
The reaction is read (excitation 340 nm, emission 420 nm) for 10 min. and the increase in fluorescence over time is plotted as a linear line. The slope of the line is calculated and represents the reaction rate.
The mean (x±sem) of the control rate is calculated and compared for statistical significance (p<0.05) with drug-treated rates using Dunnett's multiple comparison test.

[3] = biological target: T1, MMP-1 (Homo sapiens, UniProt P03956); assay: MMP-1 inhibition, thiopeptide or fluorescent peptide substrate; assay type: biochemical; conditions: Table 1, second part; for inhibition at 10 µM: read-out: MMP1 % @ 10 μM; for IC50: read-out: MMP1 IC50
T1 sequence (P03956 100-469): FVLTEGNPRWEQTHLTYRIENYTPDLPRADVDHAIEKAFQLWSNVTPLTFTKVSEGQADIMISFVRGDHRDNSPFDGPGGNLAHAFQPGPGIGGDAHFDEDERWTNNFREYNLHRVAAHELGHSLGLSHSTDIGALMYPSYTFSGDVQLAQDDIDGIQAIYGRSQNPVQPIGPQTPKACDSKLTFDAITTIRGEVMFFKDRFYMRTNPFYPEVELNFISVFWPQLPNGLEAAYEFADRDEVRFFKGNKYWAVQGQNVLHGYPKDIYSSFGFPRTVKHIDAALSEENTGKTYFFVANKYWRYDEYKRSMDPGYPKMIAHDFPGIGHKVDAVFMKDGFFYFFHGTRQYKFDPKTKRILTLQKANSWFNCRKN
Procedure: as §1, §2, §3

[4] = biological target: MMP-9 (Homo sapiens, UniProt P14780); assay: MMP-9 inhibition, thiopeptide or fluorescent peptide substrate; assay type: biochemical; conditions: for inhibition at 10 µM: read-out: MMP9 % @ 10 μM; for IC50: read-out: MMP9 IC50
Procedure: as §1, §2, §3

[5] = system: THP-1 cells (soluble TNF-α); assay: Human monocytic THP-1 cell differentiation assay for soluble proteins (THP soluble protein assay); assay type: cell-based; conditions: negative = less TNF-α; for inhibition at 3 µM: Homo sapiens, THP-1, percent change from vehicle positive control, read-out: TNFalpha at 3 uM, THP (percent change); for TNFalpha at 3 uM, THP (percent change): percent change from vehicle positive control
Description: Mitogenic stimulation of THP-1 cells cause differentiation into macrophage like cells with concomitant secretion of tumor necrosis factor (TNF-a) and TNF receptor (TNF-R p75/80 and TNF-R p55/60) and Interleukin-8 (IL-8), among other proteins. […] The release of membrane bound TNF-a and possibly TNF-R p75/80 and TNF-R p55/60, but not IL-8, is mediated by an enzyme called TNF-α converting enzyme or TACE.
THP-1 cells (from ATCC) are a human monocytic cell line which were obtained from the peripheral blood of a person with acute monocytic leukemia They can be grown in culture and differentiated into macrophage like cells by stimulation with mitogens.
Each vial of cells are cultured for about two weeks prior to being used for an assay and then are used for only 4 to 6 weeks to screen compounds.
Cell exposure to DMSO was limited to 0.1% final concentration. […] Compounds can be evaluated for their effect on basal (non-stimulated) shedding of the receptors by replacing the LPS with […] of THP-1 media Plates are placed into an incubator set at 5% CO2 and at 37° C. After 4 hours of incubation, […] of tissue culture supernatant (TCS) is removed for use in an TNF-α ELISA. Following 24 hours of incubation, […] of TCS is removed and used for analysis in TNF-R p75/80, TNF-R p55/60 and IL-8 ELISAs.
In addition, at the 24 hours timepoint, and the cells for each treatment group are collected by resuspension in 500 μl/well of THP-1 media and transferred into a FACS tube. […] The samples are run on a Becton Dickinson FaxCaliber FLOW cytometry machine and the amount of dye taken up by each cell is measured in the high red wavelength (FL3). Only cells with compromised membranes (dead or dying) can take up PI. The percent of live cells is calculated by the number of cells not stained with PI, divided by the total number of cells in the sample. The viability values calculated for the drug treated groups were compared to the viability value calculated for the vehicle treated mitogen stimulated group (“vehicle positive control”) to determine the “percent change from control”. This “percent change from control” value is an indicator of drug toxicity.
The quantity of soluble TNF-α, TNF-R p75/80 and TNF-R p55/60 and IL-8 in the TCS of the ThP-1 cell cultures are obtained with commercially available ELISAs from R&D Systems, by extrapolation from a standard curve generated with kit standards. The number of cells that either take up or exclude PI are measured by the FLOW cytometry machine and visualized by histograms using commercially available Cytologic software for each treatment group including all controls.
Biological variability in the magnitude of the response of THP-1 cell cultures requires that experiments be compared on the basis of percent change from “vehicle positive control” for each drug concentration. Percent change in each soluble protein evaluated from the “vehicle positive control” was calculated for each compound concentration with the following formula: [formula]
For the soluble protein (TNF-a, p75/80, p55/60, IL-8) studies under stimulated conditions, the mean pg/ml of duplicate wells were determined and the results expressed as percent change from “vehicle positive control”. For the soluble protein (p75/80 and p55/60 receptors) studies under non-stimulated conditions, the mean pglml of duplicate wells were determined and the results expressed as percent change from “vehicle positive control” utilizing the following formula: [formula]
IC50 values for each compound are calculated by non-linear regression analysis using customized software utilizing the JUMP statistical package.
For the cell viability studies, the viabilities (PI exclusion) of pooled duplicate wells were determined and the results expressed as % change from “vehicle positive control”.

[6] = Table 1, second part, footnote a: IC50 (nM), read-out: TACE IC50

Chain of MMP-9 (P14780 94-707): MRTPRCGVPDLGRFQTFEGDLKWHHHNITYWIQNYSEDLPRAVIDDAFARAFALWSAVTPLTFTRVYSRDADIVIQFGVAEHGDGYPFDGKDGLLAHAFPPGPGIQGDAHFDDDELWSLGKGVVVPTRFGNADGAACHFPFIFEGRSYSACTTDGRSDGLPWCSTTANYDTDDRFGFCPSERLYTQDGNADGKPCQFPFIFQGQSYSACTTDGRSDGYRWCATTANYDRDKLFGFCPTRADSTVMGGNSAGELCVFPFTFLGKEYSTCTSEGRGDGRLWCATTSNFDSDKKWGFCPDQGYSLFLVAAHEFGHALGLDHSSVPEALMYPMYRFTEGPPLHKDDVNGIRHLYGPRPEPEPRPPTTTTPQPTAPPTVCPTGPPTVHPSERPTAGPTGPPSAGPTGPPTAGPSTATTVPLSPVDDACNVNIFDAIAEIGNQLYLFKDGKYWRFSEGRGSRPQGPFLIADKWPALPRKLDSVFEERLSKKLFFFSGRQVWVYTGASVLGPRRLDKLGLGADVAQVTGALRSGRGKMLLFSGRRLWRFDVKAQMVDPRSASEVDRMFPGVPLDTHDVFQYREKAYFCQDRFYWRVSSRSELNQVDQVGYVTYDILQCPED
Chain of TNF-α converting enzyme (TACE) (P78536 215-824): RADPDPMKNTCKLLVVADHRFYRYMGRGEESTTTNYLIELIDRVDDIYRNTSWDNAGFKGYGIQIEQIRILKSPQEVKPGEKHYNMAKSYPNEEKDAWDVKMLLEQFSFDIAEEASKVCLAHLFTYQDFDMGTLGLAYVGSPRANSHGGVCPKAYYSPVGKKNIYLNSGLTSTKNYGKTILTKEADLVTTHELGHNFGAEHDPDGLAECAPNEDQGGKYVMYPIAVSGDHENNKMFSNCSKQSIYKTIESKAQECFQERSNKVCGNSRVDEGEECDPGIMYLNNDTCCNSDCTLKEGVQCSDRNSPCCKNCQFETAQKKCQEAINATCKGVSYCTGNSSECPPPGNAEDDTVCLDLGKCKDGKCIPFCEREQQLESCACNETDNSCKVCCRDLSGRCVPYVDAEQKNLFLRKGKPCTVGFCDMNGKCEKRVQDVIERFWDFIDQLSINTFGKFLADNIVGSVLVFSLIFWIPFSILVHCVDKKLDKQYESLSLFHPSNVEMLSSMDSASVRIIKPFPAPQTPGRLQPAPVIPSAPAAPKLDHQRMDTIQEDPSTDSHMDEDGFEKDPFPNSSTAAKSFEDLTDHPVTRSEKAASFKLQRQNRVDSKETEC

inhibition at 10 µM [3] [%] | inhibition at 10 µM ([4]; Table 1, second part) [%] | inhibition at 10 µM ([1]; Table 1, second part) [%] | IC50 [2, 6] [nM] | IC50 [3] [nM] | IC50 ([4]; Table 1, second part) [nM] | Structure (SMILES) | inhibition at 3 µM [5] [%] | TNFalpha at 3 uM, THP (percent change) [5] [%] | also measured
6.2 | 25.7 | 59 | 162 | – | – | CC#CCOc1ccc([S+]([O-])C(C(=O)NO)c2ccccc2)cc1 (single isomer, unassigned) [Example 113, S-2-{[4-(2-butynyloxy)phenyl]sulfinyl}-2-phenyl-N-hydroxyacetamide] | 4 | – | –
– | – | – | – | – | – | CC#CCOc1ccc(S(=O)(=O)C(CCCCCC)C(=O)NO)cc1 (stereo not drawn) [Example 5, 2-(4-But-2-ynyloxy-benzenelsulfonyl)-octanoic Acid Hydroxamide] | – | – | IC50 ([1]; Table 1, first part): 500 nM; IC50 ([2]; Table 1, first part, read-out: TACE IC50): 74.8 nM; IC50 ([4]; Table 1, first part): 2500 nM
18.4 | 0 | 53.4 | 148 | – | – | CC#CCOc1ccc([S+]([O-])C(C(=O)NO)c2ccc(F)cc2)cc1 (stereo not drawn) [Example 96] | 12 | – | –
– | – | – | – | 6480 | 399 | CC#CCOc1ccc([S+]([O-])[C@@H](C(=O)NO)C(C)C)cc1 (stereo partly drawn) [Example 108, R-2-{[4-(2-butynyloxy)phenyl]sulfinyl}-2-isopropyl-N-hydroxyacetamide] | – | −29 | –
– | – | – | – | 2990 | 893 | CC#CCOc1ccc([S+]([O-])C(C(=O)NO)C(C)C)cc1 (stereo not drawn) [Example 109, S-2-{[4-(2-butynyloxy)phenyl]sulfinyl}-2-isopropyl-N-hydroxyacetamide] | – | −20 | –

Structure (SMILES) | inhibition at 10 µM [3] [%] | inhibition at 10 µM ([4]; Table 1, second part) [%] | inhibition at 10 µM ([1]; Table 1, second part) [%] | IC50 [2, 6] [nM] | IC50 [3] [nM] | IC50 ([4]; Table 1, second part) [nM] | inhibition at 3 µM [5] [%] | TNFalpha at 3 uM, THP (percent change) [5] [%] | also measured
CC#CCOc1ccc([S+]([O-])[C@@H](C(=O)NO)c2ccc(OC)cc2)cc1 (single isomer, unassigned) [Example 77] | 17.5 | 45.4 | – | – | – | – | 12 | – | IC50 ([1]; Table 1, second part): 3690 nM; IC50 [2]: 201 nM
